Test [1] addresses T1, rat APEH (Rattus norvegicus, UniProt P13676).
T1 construct: endogenous in cells; host or cells: B103 rat neuroblastoma cells (soluble fraction)
Description: Competitive ABPP, soluble fraction of rat neuroblastoma (B103) cells. The class given is biochemical. The method, then: The soluble fractions of human ovarian (SKOV3), melanoma (C8161), and breast (MDA-MB-231) cancer cells, as well as rat neuroblastoma (B103) cells were treated with 30 nM AA74-1 or DMSO for 30 minutes at 37° C., after which the samples were analyzed by competitive ABPP. Inhibited APEH is highlighted with boxes. Note that other SHs detected in human and mouse proteomes were not inhibited by AA74-1.

The target in test [2] is T2, APEH (Mus musculus, UniProt Q8R146).
T2 sequence (Q8R146 1-732): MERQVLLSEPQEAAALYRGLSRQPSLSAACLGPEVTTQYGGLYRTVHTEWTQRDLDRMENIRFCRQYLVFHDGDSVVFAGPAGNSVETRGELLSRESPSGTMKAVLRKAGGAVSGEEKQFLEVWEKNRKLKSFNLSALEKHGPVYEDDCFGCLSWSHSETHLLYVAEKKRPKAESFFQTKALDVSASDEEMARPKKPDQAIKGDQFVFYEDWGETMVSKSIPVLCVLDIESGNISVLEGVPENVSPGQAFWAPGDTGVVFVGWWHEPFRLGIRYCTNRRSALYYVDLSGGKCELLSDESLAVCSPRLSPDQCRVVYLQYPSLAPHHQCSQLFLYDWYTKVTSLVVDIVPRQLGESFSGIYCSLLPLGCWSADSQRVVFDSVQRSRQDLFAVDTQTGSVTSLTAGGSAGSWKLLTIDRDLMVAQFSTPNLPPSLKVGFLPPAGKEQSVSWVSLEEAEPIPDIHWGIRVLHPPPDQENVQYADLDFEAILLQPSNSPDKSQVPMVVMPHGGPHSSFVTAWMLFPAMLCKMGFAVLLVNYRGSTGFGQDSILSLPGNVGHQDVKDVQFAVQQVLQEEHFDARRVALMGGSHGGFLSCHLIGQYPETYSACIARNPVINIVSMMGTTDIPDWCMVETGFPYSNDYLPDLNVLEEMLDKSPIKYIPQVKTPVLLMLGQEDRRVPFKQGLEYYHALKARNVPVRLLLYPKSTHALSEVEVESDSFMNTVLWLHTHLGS
The test is described as follows: Gel-based competitive ABPP, mouse T-cell proteome in vitro. The class given is biochemical. The method, then:
The carbamoyl triazole regioisomers were separated by gel chromatography and used for subsequent experiments. […] The compounds were screened at concentrations of 10 and 100 nM in mouse T-cell proteomes (FIG. 3e and FIG. 12).
Gel-based competitive ABPP experiments were performed as described previously. For competitive ABPP with FP-rhodamine, proteomes (1 mg/mL in PBS) were treated with FP-rhodamine (2 μM final concentration) in a […] total reaction volume. After 30 minutes at 25° C., the reactions were quenched with 2×SDS-PAGE loading buffer.
Proteomes were incubated with inhibitors for 30 minutes at 37° C. (in vitro) or for 4 h at 37° C. (in situ) at the indicated concentrations (n=3) prior to FP-rhodamine labeling. After SDS-PAGE and in-gel visualization, the percentage enzymatic activity remaining was determined by measuring the integrated optical intensity of the bands using IMAGER® software. IC50 values were determined from a dose-response curve generated using PRISM® software (GraphPad).

Test [3] addresses T3, ABHD6 (Mus musculus, UniProt Q8R2Y0).
T3 sequence (Q8R2Y0 1-336): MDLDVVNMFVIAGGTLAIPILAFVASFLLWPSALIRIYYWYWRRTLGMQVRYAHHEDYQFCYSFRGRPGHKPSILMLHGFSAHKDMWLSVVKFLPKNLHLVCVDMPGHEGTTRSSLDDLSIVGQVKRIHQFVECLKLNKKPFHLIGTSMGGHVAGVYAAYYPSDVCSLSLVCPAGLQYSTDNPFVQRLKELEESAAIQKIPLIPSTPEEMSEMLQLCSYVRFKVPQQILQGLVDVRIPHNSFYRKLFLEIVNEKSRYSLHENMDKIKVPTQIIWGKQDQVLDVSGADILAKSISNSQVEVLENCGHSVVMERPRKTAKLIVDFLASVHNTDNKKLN
Description: In situ inhibition in Neuro2A cells, competitive ABPP. The conditions noted are these: 4 hours, same dose as used for DAGLB by KT109 and KT172. The class given is cell-based. The protocol:
For gel-based competitive ABPP studies, proteomes from cells treated in situ with inhibitor for 4 h at 37° C. at the indicated concentrations (n=3) were labeled with HT-01 (1 μM) for 30 min at 37° C. After quenching, SDS-PAGE, and in-gel visualization, the percentage of enzyme activity remaining was determined by measuring the integrated optical intensity of the bands using IMAGER® software. For LC-MS substrate assays, the percentage of enzyme activity remaining was determined by comparing the specific activity (amount of 2-AG formed per min per mg of proteome) of inhibitor with DMSO-treated samples. The IC50 values were determined from a dose-response curve generated using GraphPad PRISM® software.

The values that follow come from US9108930B2, “N1- and N2-carbamoyl-1,2,3-triazole serine hydrolase inhibitors and methods” (The Scripps Research Institute, priority 2011, dated 2015).

Each structure is given as a SMILES string. Values joined by “and” are separate entries in the source; they are usually repeats but may differ in a detail not shown here. Identical values can stand only once.

T1 sequence (P13676 whole entry): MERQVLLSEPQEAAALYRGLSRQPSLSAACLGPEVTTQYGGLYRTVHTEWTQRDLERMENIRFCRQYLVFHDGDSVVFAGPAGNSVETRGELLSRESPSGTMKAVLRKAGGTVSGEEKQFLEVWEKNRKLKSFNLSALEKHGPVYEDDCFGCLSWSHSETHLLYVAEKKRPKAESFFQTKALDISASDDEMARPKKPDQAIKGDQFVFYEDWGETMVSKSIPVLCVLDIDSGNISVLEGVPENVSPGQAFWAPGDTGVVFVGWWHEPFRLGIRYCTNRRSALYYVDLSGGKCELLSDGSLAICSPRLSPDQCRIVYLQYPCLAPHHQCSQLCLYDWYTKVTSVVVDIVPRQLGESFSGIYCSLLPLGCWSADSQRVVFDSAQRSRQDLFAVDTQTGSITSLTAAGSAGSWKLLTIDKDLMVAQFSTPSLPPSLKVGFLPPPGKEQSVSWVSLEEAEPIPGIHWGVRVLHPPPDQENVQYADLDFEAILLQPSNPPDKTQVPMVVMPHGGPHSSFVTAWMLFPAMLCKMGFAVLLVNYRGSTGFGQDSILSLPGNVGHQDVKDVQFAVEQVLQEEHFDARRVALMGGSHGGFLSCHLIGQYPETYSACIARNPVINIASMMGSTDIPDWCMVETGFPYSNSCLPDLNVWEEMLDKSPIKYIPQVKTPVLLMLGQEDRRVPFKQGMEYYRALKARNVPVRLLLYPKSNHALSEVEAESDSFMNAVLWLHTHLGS

`CC(C)CC(O)(CC(C)C)c1cnn(C(=O)N2CCCC2)n1` [AA74-1]: the IC50 in test [1] was 7 nM; in test [2] (IC50 for APEH, in vitro, 30 minutes at 37° C., mouse) it was 5 nM and 3 nM. The “inhibition of APEH” value in test [2] (10 nM) is reported as “completely inhibited APEH”.
Regarding `COc1ccc(-c2ccc(-c3cn(C(=O)N4CCCCC4c4ccccc4)nn3)cc2)cc1` (stereo not shown) [KT195], the “inactivation of ABHD6 in Neuro2A cells” value in test [3] is recorded as “completely inactivating ABHD6”.

What is called IC50 is the concentration at which inhibition is half-maximal.
